Test results reported in patent publication US6391576B1, “Method for isolating a microbe” (Japan Bioindustry Association, priority 1999, dated 2002).

System: microorganisms in the activated sludge
Experiment: Colony formation on NUTRIENT BROTH agar plates inoculated with activated sludge cell dispersion
Type: cell-based
Details: 30° C.; for Growth of the microorganisms in the activated sludge (in words): 0.1 w/w % on plate
Protocol: Ten ml of activated sludge obtained from a food manufacturer's factory were filtered through gauze. The filtered activated sludge was stirred, subjected to ultra-sonics, added with a saline solution, and further stirred to allow cells to disperse well in the filtered activated sludge. The cell dispersion was diluted with a saline solution to 3×10^4 cells/ml as determined by staining with 6-carboxy-fluorescein diacetate (J. Porter et al. J. Appl. Bacteriol., Vol. 79, 399-408 (1995)).
The medium used was NUTRIENT BROTH (DIFICO), an 1:3 mixture of Bact Beef® and Bact Peptone®) added with 0.2% glucose and 2% agar. The medium was heat-sterilized and allowed to coagulate in plates. The plates were added with 0.1 w/w % of the compound shown in Table 3 and inoculated with 0.1 ml of the cell dispersion solution, and incubated at 30° C. After 2 or 10 days incubation, the number of colonies formed on the plates was counted.

[1] = 0.1 w/w % cyclodextrin compound on plate, 0.1 ml cell dispersion
[2] = 0.1 w/w % polysaccharide on plate

| Molecule | Colony/plate formed after incubation of 2 days [1] | Colony/plate formed after incubation of 10 days [1] | Growth of the microorganisms in the activated sludge (in words) | Colony/plate formed after incubation of 2 days [2] | Colony/plate formed after incubation of 10 days [2] |
| --- | --- | --- | --- | --- | --- |
| COC[C@H]1O[C@@H]2O[C@H]3[C@H](OC)[C@@H](OC)[C@@H](O[C@H]4[C@H](OC)[C@@H](OC)[C@@H](O[C@H]5[C@H](OC)[C@@H](OC)[C@@H](O[C@H]6[C@H](OC)[C@@H](OC)[C@@H](O[C@H]7[C@H](OC)[C@@H](OC)[C@@H](O[C@H]8[C@H](OC)[C@@H](OC)[C@@H](O[C@H]1[C@H](OC)[C@H]2OC)O[C@@H]8COC)O[C@@H]7COC)O[C@@H]6COC)O[C@@H]5COC)O[C@@H]4COC)O[C@@H]3COC [2,3,6-Tri-O-methyl-β-cyclodextrin] | 220 Colony/plate | 650 Colony/plate | promoted the growth |  |  |
| COC[C@H]1O[C@@H]2O[C@H]3[C@H](O)[C@@H](OC)[C@@H](O[C@H]4[C@H](O)[C@@H](OC)[C@@H](O[C@H]5[C@H](O)[C@@H](OC)[C@@H](O[C@H]6[C@H](O)[C@@H](OC)[C@@H](O[C@H]7[C@H](O)[C@@H](OC)[C@@H](O[C@H]8[C@H](O)[C@@H](OC)[C@@H](O[C@H]1[C@H](O)[C@H]2OC)O[C@@H]8COC)O[C@@H]7COC)O[C@@H]6COC)O[C@@H]5COC)O[C@@H]4COC)O[C@@H]3COC [2,6-Di-O-methyl-β-cyclodextrin] | 520 Colony/plate | 1,060 Colony/plate | promoted the growth |  |  |
| Glucomannan |  |  |  | 190 Colony/plate | 650 Colony/plate |
| OC[C@H]1O[C@@H]2O[C@H]3[C@H](O)[C@@H](O)[C@@H](O[C@H]4[C@H](O)[C@@H](O)[C@@H](O[C@H]5[C@H](O)[C@@H](O)[C@@H](O[C@H]6[C@H](O)[C@@H](O)[C@@H](O[C@H]7[C@H](O)[C@@H](O)[C@@H](O[C@H]8[C@H](O)[C@@H](O)[C@@H](O[C@H]1[C@H](O)[C@H]2O)O[C@@H]8CO)O[C@@H]7CO)O[C@@H]6CO)O[C@@H]5CO)O[C@@H]4CO)O[C@@H]3CO [β-Cyclodextrin] | 105 Colony/plate | 350 Colony/plate |  |  |  |
| Glycogen |  |  |  | 210 Colony/plate | 830 Colony/plate |
| Dextran |  |  |  | 146 Colony/plate | 350 Colony/plate |
| Cellulose |  |  |  | 244 Colony/plate | 685 Colony/plate |
| Pullulan |  |  |  | 180 Colony/plate | 600 Colony/plate |
| OC[C@H]1O[C@@H]2O[C@H]3[C@H](O)[C@@H](O)[C@@H](O[C@H]4[C@H](O)[C@@H](O)[C@@H](O[C@H]5[C@H](O)[C@@H](O)[C@@H](O[C@H]6[C@H](O)[C@@H](O)[C@@H](O[C@H]7[C@H](O)[C@@H](O)[C@@H](O[C@H]8[C@H](O)[C@@H](O)[C@@H](O[C@H]9[C@H](O)[C@@H](O)[C@@H](O[C@H]1[C@H](O)[C@H]2O)O[C@@H]9CO)O[C@@H]8CO)O[C@@H]7CO)O[C@@H]6CO)O[C@@H]5CO)O[C@@H]4CO)O[C@@H]3CO [γ-Cyclodextrin] | 210 Colony/plate | 640 Colony/plate | promoted the growth |  |  |
| OC[C@H]1O[C@@H]2O[C@H]3[C@H](O)[C@@H](O)[C@@H](O[C@H]4[C@H](O)[C@@H](O)[C@@H](O[C@H]5[C@H](O)[C@@H](O)[C@@H](O[C@H]6[C@H](O)[C@@H](O)[C@@H](O[C@H]7[C@H](O)[C@@H](O)[C@@H](O[C@H]1[C@H](O)[C@H]2O)O[C@@H]7CO)O[C@@H]6CO)O[C@@H]5CO)O[C@@H]4CO)O[C@@H]3CO [α-Cyclodextrin] | 120 Colony/plate | 320 Colony/plate |  |  |  |
| 2-Hydroxypropyl-β-cyclodextrin | 270 Colony/plate | 710 Colony/plate | promoted the growth |  |  |
| Curdlan |  |  |  | 220 Colony/plate | 745 Colony/plate |
